The assay concerns PSMA+HEK cells. Description: Luminescence ADCC reporter (CD16α activation) assay with mmAb. In kind it is cell-based, human. The conditions noted are these: antibody 10^−7-10^−9 M. On the procedure:
Covalent vs. non-covalent antibody recruitment were compared in functional immune assays. Activation of NK cell CD16α immune receptors was assessed via luminescence based ADCC assays. ADCC was quantified using the ADCC Reportor Bioassay kit (Promega G7010). All ADCC induced luminescence was measured on a SpectraMax i3 plate reader (Molecular Devices). The human IgG isotype control used was purchased from Jackson ImmunoResearch (009-000-003). The human IgG1 monoclonal anti-DNP antibody (mAb) was purchased from Acrobiosystems (DNP-M2). Human IgG from serum was purchased from Innovative Research ([…]1000MG). Anti-DNP depleted serum was made from human IgG from serum (Innovative Research). For PSMA competition controls, 2-PMPA was purchased from Sigma (SML1612). Hek-293T (PSMA+/−) cell lines were generously given by Dr. Cyril Barinka (Institute of Biotechnology CAS, Czech Republic). Ultra low IgG FBS was purchased from Fischer Scientific (A3381901). RPMI-1640 was purchased as a powder from Fischer Scientific (31800089) and resuspended. DMEM was purchased as a powder from Fischer Scientific (12800082) and resuspended. Pen/Strep was purchased from Fischer Scientific (15140-122). FBS was purchased from Fischer Scientific (12484-028). Zeocin was purchased from Fischer Scientific (R25001). HEK-PSMA cells were cultured in DMEM media with 2 mM L-glut, 1% Pen/Strep, 10% FBS, 50 ug/mL Zeocin. HEK cells were cultured in DMEM media with 2 mM L-glut, 1% Pen/Strep, 10% FBS.
Preparation of antibody-CIR/ARM stocks were mixed overnight prior to addition to the ADCC plate. In the case of mmAb and mAb, incubation was carried out at 600 nM antibody and 1.2 μM CIR or ARM. In the case of IgG from serum, incubation was completed at 230 μM antibody and 8.7 μM CIR or ARM. In all cases, DMSO was kept close to 1%. After the overnight incubation, a dilution series was completed on the antibody-CIR/ARM stocks in RPMI (1% DMSO). […] 75 μL of Bio-Glo Luciferase Assay Reagent was added to each well, and luminescence was quantified using the SpectraMax i3 plate reader. […]

Results on 2 compounds are retold here after patent US11827624B2, “Covalent immune recruiter compounds for immune cell recognition and associated uses” (McMaster University, priority 2020, dated 2023).

Consider `O=C(O)CC[C@H](NC(=O)N[C@@H](CCCCNC(=O)NCCOCCOCCOCCOCCOCCOCCOCCOC(=O)NCCOCCn1cc(CNc2ccc([N+](=O)[O-])cc2[N+](=O)[O-])nn1)C(=O)O)C(=O)O` [ARM 12, reference compound], for which the “CD16α based target immune recognition” value is “largely unable to mediate immune recognition of target HEK cells”.
On to `O=C(O)CC[C@H](NC(=O)N[C@@H](CCCCNC(=O)NCCOCCOCCOCCOCCOCCOCCOCCOC(=O)n1cnc(CCn2cc(CNc3ccc([N+](=O)[O-])cc3[N+](=O)[O-])nn2)c1)C(=O)O)C(=O)O` [CIR 5], for which the “CD16α based target immune recognition” value was “robust target immune recognition”.
